Several values for one entry are separate records, joined by “and”; a condition that tells them apart may be missing. Equal entries are not always repeated. Structures can show the parent of a compound that is named as a salt.
What was measured:
[1] = Example 13: screening of excipients that inhibit precipitation or gelation of sertraline lactate when chloride is present; format: physicochemical; conditions: sertraline lactate with excipient
[2] = Mechanical properties of compacts (compression, indentation hardness, moduli, tensile strength); format: physicochemical; conditions: for Compression Stress / Solid Fraction: Compact Preparation; for Dynamic Indentation Hard. / Reduced Elastic Modulus: Dynamic Indentation; for Tensile Strength: Tensile Fracture
Method: These indices are derived from critical measurements made to assess the mechanical response of the compacts (measurements are not made during the process of compaction).
The most critical material properties that influence powder compaction are its ductility, elasticity and tensile strength. Ductility is determined by pendulum impact and is a dynamic indentation test to determine the hardness of the compact. The hardness of the compound is inversely related to its ductility.
Elasticity values of greater than 8 GPa are high, values between 1-8 GPa are moderate and values less than 1 GPa are low.
Tensile strength is measured by transverse compression of the compacts until it results in tensile fracture. It is desirable to have high tensile strength. Tensile strength of greater than 2 MPa is high, values in the range of 0.8-2.0 Mpa are moderate and values less than 0.8 MPa are low.
Hiestand's ITP is comprised of the following characteristics: brittle fracture index (herein termed BFI), best case bonding index (herein termed bBI), worst case bonding index (herein termed wBI) and strain index (herein termed SI).
The BFI is a measure of the propensity of a compact to break or fragment under stress from existing cracks and holes in the compact. BFI is used by the skilled person to indicate the propensity of a tablet to break or fragment during processing (i.e. failure) such as during ejection from a tablet press or during film coating.
Bonding index is an estimate of the capacity of a compact to retain interparticulate bonds during elastic recovery. […] The estimate of plastic deformation is used in calculating the bonding index. The estimation of bonding index is important since decompression is a major step in the manufacture of tablets. The worst case bonding index (wBI) and best case bonding index (bBI) assess the ability of the interparticulate bonds that have been formed during compression to survive the release of strain energy during compression. Under conditions of high speed manufacture of tablets wBI is more applicable than bBI. Bonding index values of greater than or equal 2 are excellent; values between 0.8-1.9 are good; values between 0.3-0.7 are marginal and values less than 0.3 are poor.
The strain index is a measure of the elastic recovery of the compact. It can also be stated to be a measure of be extent of elastic recovery during the unloading phase.

[3] = Example 15: sertraline dissolution rate from packed powder in gastric buffer; format: physicochemical
Method: The sample tubes were spun at 14K G for 5 minutes in a microcentrifuge to pack the powder. 150 μl gastric buffer was added to the packed powder and the samples were gently agitated,then spun at 14K G in a microcentrifuge for 2 minutes. The samples were then removed from the microcentrifuge and allowed to stand undisturbed until the solution was removed.

[4] = Example 1: plasma sertraline pharmacokinetics, 200 mg bolus vs 15 hr divided dosing; format: in vivo; conditions: male, human, oral
Method: (§1) In a double-blind, randomized, placebo-controlled parallel group study, healthy male human subjects were divided into three groups. […] The tablets were administered with 50 ml water. […] Group B also received two placebo tablets at the fist dosing time. Group C, referred to as the “placebo group”, received placebo tablets and placebo solutions at the appropriate corresponding time points. All subjects were dosed after an overnight fast.
Tmax is the time at which Cmax is achieved.

[5] = tested on: healthy male human subjects; assay: Example 2: side effect visual analogue scales and emesis; format: in vivo; conditions: 200 mg bolus dose group (n=14)
Method: (§2) In a double-blind, randomized, placebo controlled parallel group study, healthy male human subjects were divided into three groups. […] The tablets were administered with 50 ml water. Group A also received a 50 ml placebo solution every hr for 7 hr. The placebo solution contained lactose and menthol. […] Group B also received two placebo tablets at the fist dosing time. Group C (n=15) received placebo tablets and placebo solutions at the appropriate time points. All subjects were dosed after an overnight fast.
For three side effects evaluated at 30 time points, a total of 4,500 individual visual-analogue-scale evaluations were obtained.

[6] = tested on: healthy male human subjects; assay: Example 1: side effect visual analogue scales and emesis; format: in vivo; conditions: 15 hr divided dose regimen (15 subjects)
Method: as §1
Prior to dosing and to each blood sampling time, each subject filled out a questionnaire, which consisted of a series of “Visual Analogue Scales” in which the subject was required to rate, on a scale of 0-10, the severity of certain potential side effects. The subjects were instructed that “0” indicated an absent effect and “10” indicated the worst possible effect.
Analysis of side effect visual-analogue-scale data was carried out as follows. […] The non-gastrointestinal side effects dizziness and tremor were also evaluated.

[7] = tested on: healthy male human subjects; assay: Example 6 Study II: emesis, regurgitation and PK/PD plots
[8] = tested on: healthy male human subjects; conditions: Study I
Method: In a subset of a larger double-blind, randomized, placebo-controlled parallel group study, healthy male human subjects were divided into two groups (Study I). […] The tablets were administered with 50 ml water. Group B received two placebo tablets. All subjects were dosed after an overnight fast.
The subjects were instructed that “0” indicated an absent effect and “10” indicated the worst possible effect. The subjects were instructed to interpolate between 0 and 10 for moderate side effects.
A total of 30 subjects completed Study I: 15 each in Groups A and B. For each side effect evaluated at 30 time points, a total of 900 individual visual-analogue-scale evaluations were obtained.

[9] = Example 2: plasma sertraline pharmacokinetics, 200 mg bolus vs 7 hr divided dosing; format: in vivo; conditions: male, human, oral, mean
Method: as §2

[10] = Example 10: solubility of sertraline hydrochloride in organic acid solutions; conditions: water (no acid excipient), thermodynamic from solid

## N[C@@H](Cc1c[nH]cn1)C(=O)O [Histidine]
[1]; NaCl 150 mM
  Final Sertraline Concentration: 110 mg/mL
  Observation After NaCl Addition: slight precipitate

## Sertraline acetate
[2]
  elastic modulus (in words): relatively low
  Compression Stress: 36.7 (2.5) Mpa
  Solid Fraction: 0.831
  Dynamic Indentation Hard.: 60.0 (0.4) Mpa
  Reduced Elastic Modulus: 5.1 (0.5) GPa
  Tensile Strength: 0.52 (0.03) Mpa
[2]; Quasistatic Indentation
  Quasistatic Indentation Hard.: 25.1 (1.3) Mpa
  Shear Modulus: 99.9 (19.1) Mpa
[2]; from dynamic indentation hardness
  ductility (in words): high (dynamic indentation hardness values below 100 Mpa are high)

## CCCCCCCC/C=C\CCCCCCCC(=O)OCC(O)CO (stereo not shown) [Myrerol ® (18-99), Glyceryl Monooleate]
[3]; excipient 5.0, ascorbic 49.5, lactose 12.5, lactate 14 wt %
  Sertraline Dissolution Rate: 6.4 mg/ml-min

## CN[C@H]1CC[C@@H](c2ccc(Cl)c(Cl)c2)c2ccccc21 [Sertraline]
[4]
  Cmax: 32 ng/mL
  Tmax: 16 h
[5]
  emetic events: 4
[6]
  emetic episodes: no emetic episodes
[7]; 200 mg dose group
  subjects who exhibited regurgitation: four
  subjects with emesis: Four
  time of emesis in individual subjects: 2.6 h and 2.8 h and 3.8 h
[7]; the four subjects with regurgitation
  individual PK/PD plots for regurgitation: clockwise hysteresis
[8]; 200 mg bolus dose
  PK/PD plot of average nausea score vs plasma sertraline concentration (FIG. 6): clockwise hysteresis
  diarrhea score vs plasma sertraline concentration curve: clockwise hysteresis
[8]; post-dose
  time of maximum diarrhea score: 3 h
[9]; 25 mg per hr for 7 hr
  Tmax: 10.4 h
[9]; 25 mg solution per hr for 7 hr (eight doses, 200 mg)
  Cmax: 46 ng/mL

## CCCCCCCCCCCCCCCC(=O)OC[C@H](O)[C@H]1OC(=O)C(O)=C1O [Ascorbyl palmitate]
[3]; excipient 6.8, no acid, lactose 74.2, lactate 19 wt %
  Sertraline Dissolution Rate: 4.3 mg/ml-min

## Span ® 60
[3]; Span 60 5.0, ascorbic 51.0, lactose 15, lactate 14 wt %
  Sertraline Dissolution Rate: 9.5 mg/ml-min

## CCCCCCCCCCCCCCCCCC(=O)OCC(O)CO (stereo not shown) [Imwitor ® 191, Glyceryl Monostearate]
[3]; excipient 5.0, ascorbic 49.5, lactose 12.5, CaCO3 1.0, lactate 14 wt %
  Sertraline Dissolution Rate: 8.0 mg/ml-min

## CN[C@H]1CC[C@@H](c2ccc(Cl)c(Cl)c2)c2ccccc21.C[C@H](O)C(=O)O [Sertraline L-lactate]
[3]; no candidate excipient, ascorbic 51.0, lactose 20, lactate 14 wt %
  Sertraline Dissolution Rate: 3.5 mg/ml-min
[3]; sertraline lactate 100 wt %, no excipient
  Sertraline Dissolution Rate: 0.9 mg/ml-min
[2]
  tensile strength (in words): very high
  Compression Stress: 52.8 (0.7) Mpa
  Solid Fraction: 0.862
  Dynamic Indentation Hard.: 81.6 (1.6) Mpa
  Reduced Elastic Modulus: 7.4 (0.6) GPa
  Tensile Strength: 0.56 (0.02) Mpa
[2]; Quasistatic Indentation
  Elastic Modulus: 2.0 (0.2) Gpa
  Quasistatic Indentation Hard.: 31.1 (1.4) Mpa
  Shear Modulus: 113.9 (4.6) Mpa

## CN[C@H]1CC[C@@H](c2ccc(Cl)c(Cl)c2)c2ccccc21 [Sertraline hydrochloride]
[10]
  solubility: 25 mg/mL

## CCCCCCCCCCCC(=O)OCC(O)CO (stereo not shown) [Imwitor ® 312, Glyceryl Monolaurate]
[3]; excipient 5.0, ascorbic 49.5, lactose 12.5, CaCO3 5, lactate 14 wt %
  Sertraline Dissolution Rate: 20.9 mg/ml-min
[3]; excipient 6.8, aspartic 74.2, lactate 19 wt %
  Sertraline Dissolution Rate: 5.3 mg/ml-min

## O=C1O[C@H]([C@@H](O)CO)C(O)=C1O [Ascorbic acid]
[1]; NaCl 100 mM
  Observation After NaCl Addition: precipitate

— patent publication US6517866B1 (Pfizer Inc., priority 1997, dated 2003)
